Laboratory results: patent publication US9468646B2, “Increased dosage of efavirenz for the treatment of cancer” (Alienor Farma, priority 2013, dated 2016)
Several values for one entry are separate records, joined by “and”; a condition that tells them apart may be missing. Equal values may be shown once. Read-outs that look alike come from different tables or passages of the source.

What was measured:
L1-RT = conditions: human tumor cell lines; cited from earlier work
[1] = ESCALE study: Efavirenz plasma concentration depending on daily dose (UPLC-MS/MS); assay type: in vivo, human; conditions: for mean plasma concentration of Efavirenz: three patients
Text: The […] clinical study is a single arm, single center (Bergonie Institute), and dose escalation phase I study. Objectives of this study are to assess the safety, tolerability, and recommended dose of Efavirenz administered orally, by continuous once-daily administration in patients with solid tumors (no pancreatic cancer) and Non-Hodgkin Lymphoma (NHL) who have failed chemotherapy treatment. The scheme of the study is a dose escalation evaluated by continual reassessment method likelihood approach (O'Quickley, 1996). […] The maximal subject number assessable is 30 patients. Blood samples for the evaluation of Efavirenz plasma concentrations were taken at 14 days, 28 days after the start of Efavirenz treatment. For Efavirenz plasma concentration determination, 10 ml of blood were collected using sodium or lithium heparinate tubes. After each blood collection, the tubes of blood were centrifuged for 5 minutes at 5000 g. Plasma was collected in polypropylene tubes. The plasma tubes of each subject were packed and stored in appropriately labelled plastic frost-resistant bags and stored at -20° C. until analysis. Samples were sent to a pharmacokinetic analysis laboratory for Efavirenz concentration analysis that was performed using a validated mass-spectrometry coupled to liquid chromatography (UPLC-MS/MS) method. […] The sample was vortex-mixed for 30 sec, and then 5 mL of diethyl ether was added. After 15 min under agitation, the organic and aqueous phases were separated by centrifugation at 3000 rpm for 10 min. […] The residue was re-dissolved in 150 μL of methanol. The UPLC-MS/MS unit consisted of Waters ACQUITY UPLC® instrument coupled with an Acquity TQD® detector. Separations were performed at 40° C. on an Acquity UPLC® BEH C18 column (50*2.1 mm) at a flow rate of 0.3 mL/min. Gradient elution was performed over 2.3 minutes using a combination of acetonitrile and ammonium formate buffer (4 mM) as mobile phase. […] Calibration curves were obtained by analysis of standard solutions prepared in plasma in the range 100-10000 ng/mL and limit of quantification (LOQ) was 2.5 ng/mL.

[2] = FAVE study: Efavirenz plasma concentration (UPLC-MS/MS); assay type: in vivo, human; conditions: 600 mg/day
Text: Sixty-one patients were included in the study and fifty-three patients had no violation of the eligibility criteria and received Efavirenz at least once (general population). The assessment of Efavirenz plasma concentrations was an optional exploratory objective to which the patients had to expressly consent. Plasma Efavirenz concentrations at the three month time point were available for 41 patients that were used for the exploratory analysis. Blood samples for the evaluation of Efavirenz plasma concentrations were taken at three months after the start of Efavirenz treatment. For Efavirenz plasma concentration determination, 10 ml of blood were collected using sodium or lithium heparinate tubes. After each blood collection, the tubes of blood were centrifuged for 5 minutes at 5000 g. Plasma was collected in polypropylene tubes. The plasma tubes of each subject were packed and stored in appropriately labelled plastic frost-resistant bags and stored at −20° C. until analysis. Samples were sent to a pharmacokinetic analysis laboratory for Efavirenz concentration analysis that was performed using a validated mass-spectrometry coupled to liquid chromatography (UPLC-MS/MS) method. […] Calibration curves were obtained by analysis of standard solutions prepared in plasma in the range 100-10000 ng/mL and limit of quantification (LOQ) was 2.5 ng/mL.

[3] = tested on: hormone refractory prostate cancer; test: FAVE follow up study: progression free survival (RECIST) and overall survival, ITT analysis; assay type: in vivo, human
Experimental: For the exploratory analysis, following the latest recommendations of the Prostate Cancer Clinical Trials Working Group (Scher, 2008), PSA progression was defined as an increase of more than 25% over the baseline and an increase in the concentrations of PSA of at least 2 ng/ml. The clinical symptoms, the number of new bone metastasis and the global response to treatment (evaluated by the RECIST criteria) were also recorded. After three months, the global response and the overall survival were evaluated in a follow up study. This approach was followed by an interventional approach aimed to establish a causal relationship between dose and efficacy of the treatment. In this case after three months of treatment at the 600 mg/day dose, the doses of Efavirenz were progressively raised to reach 1.2 g/day. Differences in disease progression as a function of plasma Efavirenz concentrations were confirmed in the follow up study. […] Log-rank Mantel-Cox's test, the <1500 and 1500-3000 groups were cumulated for statistical analysis). […] These thirteen patients were used to constitute the dose escalation group.

[4] = tested on: metastatic hormone-refractory prostate cancer; test: FAVE study: PSA progression at 3 months under Efavirenz; assay type: in vivo, human; conditions: 600 mg/day; for PSA progression (share of subjects): 3 months
Experimental: For the exploratory analysis, following the latest recommendations of the Prostate Cancer Clinical Trials Working Group (Scher, 2008), PSA progression was defined as an increase of more than 25% over the baseline and an increase in the concentrations of PSA of at least 2 ng/ml. The clinical symptoms, the number of new bone metastasis and the global response to treatment (evaluated by the RECIST criteria) were also recorded. After three months, the global response and the overall survival were evaluated in a follow up study. Patients received 600 mg of Efavirenz per day and, during Efavirenz treatment, hormone therapy was maintained. […] However, it is difficult to predict precisely the efficacious dose in humans based on preclinical data. For this reason, the goal of the FAVE study was twofold: 1. […] Explore the relationship between the dose of the compound and clinical efficacy. In order to establish the minimal efficacious dose that could be effective for the treatment of prostate cancer the inventor used a correlational approach in which plasma concentrations of Efavirenz were related to treatment efficacy measured at the three month time point. Sixty-one patients were included in the study and fifty-three patients had no violation of the eligibility criteria and received Efavirenz at least once (general population). The assessment of Efavirenz plasma concentrations was an optional exploratory objective to which the patients had to expressly consent. Plasma Efavirenz concentrations at the three month time point were available for 41 patients that were used for the exploratory analysis.

[5] = Pharmacokinetic study in rats (Balani et al 1999); assay type: in vivo; conditions: rat, intravenous injection of 5 mg/kg, converted from μM
[6] = rat, intravenous injection of 5 mg/kg; cited from earlier work
[7] = cited from earlier work

Compound	reverse transcriptase activity of L1-RT (L1-RT)	mean plasma concentration of Efavirenz ([1]; 1800 mg/day)	mean plasma concentration of Efavirenz ([1]; 2200 mg/day)	patients with Efavirenz plasma concentration of at least 3000 ng/ml ([1]; daily dose between 1800 and 2200 mg) [%]	patients with Efavirenz plasma concentration of at least 1500 ng/ml ([2]; 3 months, 41 patients) [%]	concentration at 3 months ([2]; human, plasma, cancer patients) [ng/mL]	median progression free survival ([3]; dose escalation group: up to 1200 mg/day, originally <3000 ng/ml, 13 patients) [months]	median progression free survival ([3]; low (<1500 ng/ml) and intermediate (1500-3000 ng/ml) groups cumulated) [months]	median progression free survival ([3]; plasma Efavirenz 1500-3000 ng/ml group) [months]	median progression free survival ([3]; plasma Efavirenz <1500 ng/ml group) [months]	median progression free survival ([3]; plasma Efavirenz <3000 ng/ml, no dose escalation (600 mg/day)) [months]	median progression free survival ([3]; plasma Efavirenz >3000 ng/ml group) [months]	PSA progression (share of subjects) ([4]; plasma Efavirenz 1500-3000 ng/ml group, N=22) [%]	PSA progression (share of subjects) ([4]; plasma Efavirenz <1500 ng/ml group, N=12) [%]	non-progressions for PSA levels at 3 months (share of patients) ([4]; all treated patients, N=53) [%]	patients in whom the disease continued to progress (PSA) at 3 months ([4]; all treated patients, N=53) [%]	maximal plasma concentration [5] [ng/mL]	maximal plasma concentration [6] [µM]	subjects with plasma concentrations above 1500 ng/ml ([7]; 600 mg/day (Marzolini, 2001))	Efavirenz plasma concentration reached ([7]; 600 mg/day, patients with two loss or decrease of function CYP2B6 alleles (Rotger, 2007))
Cc1ccnc2c1NC(=O)c1cccnc1N2C1CC1 [Nevirapine]	able to inhibit																			
O=C1Nc2ccc(Cl)cc2[C@@](C#CC2CC2)(C(F)(F)F)O1 [Efavirenz]		3712 ng/mL and > 3000 ng/mL and > 3500 ng/mL	7364 ng/mL and > 6500 ng/mL	84	70	2140	10	3	3	3	3	17	81.8	83.3	28	72	1578	5	70-80%	at least 3000 ng/ml
